One assay relates to 5637. In words: Proliferation of tumor cell lines (Bracht et al.). The note with it: for activity at 20 µM: 5637, tested at 20 μM, read-out: T/C (%) Mean. Type of assay: cell-based.
For another assay, the system named is SISO. In words: Proliferation of tumor cell lines (Bracht et al.). Type of assay: cell-based. Conditions: for activity at 20 µM: tested at 20 μM, read-out: T/C (%) Mean.
For another assay, the system named is KYSE-70. In words: Proliferation of tumor cell lines (Bracht et al.). The note with it: Homo sapiens; for activity at 20 µM: KYSE-70, tested at 20 μM, read-out: T/C (%) Mean. Type of assay: cell-based.
A further assay has as its target T1, Aurora-B (Homo sapiens, UniProt Q96GD4).
T1 construct: made in house; host or cells: Sf9 insect cells, baculovirus
In words: Radiometric protein kinase assay (33PanQinase Activity Assay). Type of assay: biochemical. The source says: (§1) AKTI1, ARK5, Aurora-A, Aurora-B, B-RAF-VE, CDK2/CycA, CDK4/CycD1, CK2-alpha1 (catalytic subunit of CK2), EGF-R, EPHB4, ERBB2, FAK, IGF1-R, SRC, VEGF-R2, VEGF-R3, FLT3, INS-R, MET, PDGFR-beta, PLK1, SAK, TIE2, COT.
(§2) All the protein kinases were expressed in Sf9 insect cells as human recombinant GST fusion proteins or His-tagged proteins by the baculovirus expression system. Kinases were purified by affinity chromatography either by GSH-agarose (Sigma) or Ni—NTH-agarose (Qiagen). The purity of the kinases was tested by SDS-PAGE/silver staining, and the identity of the kinases was verified by Western blot analysis with specific antibodies or mass spectroscopy.
(§3) A radiometric protein kinase assay (33PanQinase® Activity Assay) was used to measure the kinase activity for the 24 protein kinases. The kinase assays were carried out in 96-well FlashPlates™ from Perkin Elmer/NEN (Boston, Mass., USA) in a reaction volume of 50 μl. The reaction mixture was pipetted in 4 steps in the following sequence: • 20 μl of assay buffer • 5 μl of ATP solution (in H2O) • 5 μl of test compound (in 10% DMSO) • 10 μl of substrate/10 μl of enzyme solution (premixed)
(§4) The assays for all the enzymes contained 60 mM HEPES-NaOH, pH 7.5, 3 mM MgCl2, 3 mM MnCl2, 3 μM Na orthovanadate, 1.2 mM DTT, 50 μg/ml PEG20000, 1 μM [γ-^33P]-ATP (about 5×10^5 cpm per well).
(§5) The reaction mixture was incubated at 30° C. for 80 minutes. The reaction was stopped with 50 μl of 2% (v/v) H3PO4. The plates were aspirated and washed twice with 200 μl of 0.9% (w/v) NaCl. The incorporation of ^33Pi was determined using a microtiter plates scintillation counter (Microbeta Trilux, Wallac).

In another assay the target is T2, B-RAF-VE (Homo sapiens, UniProt P15056, V600E).
T2 construct: made in house; host or cells: Sf9 insect cells, baculovirus
T2 sequence (P15056 whole entry V600E): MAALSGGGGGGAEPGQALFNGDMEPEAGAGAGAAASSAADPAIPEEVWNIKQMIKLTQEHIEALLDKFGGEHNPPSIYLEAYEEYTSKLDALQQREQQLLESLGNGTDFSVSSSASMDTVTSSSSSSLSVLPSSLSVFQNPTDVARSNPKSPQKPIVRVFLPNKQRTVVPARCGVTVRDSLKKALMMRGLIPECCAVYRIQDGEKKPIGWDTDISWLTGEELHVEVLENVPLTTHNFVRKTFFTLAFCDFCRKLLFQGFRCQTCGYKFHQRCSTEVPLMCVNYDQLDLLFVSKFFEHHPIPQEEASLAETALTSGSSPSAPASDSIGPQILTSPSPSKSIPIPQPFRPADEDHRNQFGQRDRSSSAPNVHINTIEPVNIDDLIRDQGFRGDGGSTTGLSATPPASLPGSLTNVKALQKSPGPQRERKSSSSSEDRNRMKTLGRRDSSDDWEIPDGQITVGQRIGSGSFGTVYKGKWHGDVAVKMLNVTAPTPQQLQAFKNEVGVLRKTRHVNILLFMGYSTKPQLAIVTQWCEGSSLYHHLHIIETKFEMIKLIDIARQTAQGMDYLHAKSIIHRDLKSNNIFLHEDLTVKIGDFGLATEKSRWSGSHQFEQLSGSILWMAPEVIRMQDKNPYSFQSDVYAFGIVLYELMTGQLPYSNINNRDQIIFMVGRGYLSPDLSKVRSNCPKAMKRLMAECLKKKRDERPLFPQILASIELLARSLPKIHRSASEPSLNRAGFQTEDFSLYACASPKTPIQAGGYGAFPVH
The description is as above. Type of assay: biochemical.
Text: as §1, §2, §3, §4, §5

For the next assay, the target named is T3, CDK2/CycA (Homo sapiens, UniProt P24941).
T3 construct: made in house; host or cells: Sf9 insect cells, baculovirus
Described as above. It counts as biochemical.
Text: as §1, §2, §3, §4, §5

The target of another assay is T4, FAK (Homo sapiens, UniProt Q05397).
T4 construct: made in house; host or cells: Sf9 insect cells, baculovirus
T4 sequence (Q05397 whole entry): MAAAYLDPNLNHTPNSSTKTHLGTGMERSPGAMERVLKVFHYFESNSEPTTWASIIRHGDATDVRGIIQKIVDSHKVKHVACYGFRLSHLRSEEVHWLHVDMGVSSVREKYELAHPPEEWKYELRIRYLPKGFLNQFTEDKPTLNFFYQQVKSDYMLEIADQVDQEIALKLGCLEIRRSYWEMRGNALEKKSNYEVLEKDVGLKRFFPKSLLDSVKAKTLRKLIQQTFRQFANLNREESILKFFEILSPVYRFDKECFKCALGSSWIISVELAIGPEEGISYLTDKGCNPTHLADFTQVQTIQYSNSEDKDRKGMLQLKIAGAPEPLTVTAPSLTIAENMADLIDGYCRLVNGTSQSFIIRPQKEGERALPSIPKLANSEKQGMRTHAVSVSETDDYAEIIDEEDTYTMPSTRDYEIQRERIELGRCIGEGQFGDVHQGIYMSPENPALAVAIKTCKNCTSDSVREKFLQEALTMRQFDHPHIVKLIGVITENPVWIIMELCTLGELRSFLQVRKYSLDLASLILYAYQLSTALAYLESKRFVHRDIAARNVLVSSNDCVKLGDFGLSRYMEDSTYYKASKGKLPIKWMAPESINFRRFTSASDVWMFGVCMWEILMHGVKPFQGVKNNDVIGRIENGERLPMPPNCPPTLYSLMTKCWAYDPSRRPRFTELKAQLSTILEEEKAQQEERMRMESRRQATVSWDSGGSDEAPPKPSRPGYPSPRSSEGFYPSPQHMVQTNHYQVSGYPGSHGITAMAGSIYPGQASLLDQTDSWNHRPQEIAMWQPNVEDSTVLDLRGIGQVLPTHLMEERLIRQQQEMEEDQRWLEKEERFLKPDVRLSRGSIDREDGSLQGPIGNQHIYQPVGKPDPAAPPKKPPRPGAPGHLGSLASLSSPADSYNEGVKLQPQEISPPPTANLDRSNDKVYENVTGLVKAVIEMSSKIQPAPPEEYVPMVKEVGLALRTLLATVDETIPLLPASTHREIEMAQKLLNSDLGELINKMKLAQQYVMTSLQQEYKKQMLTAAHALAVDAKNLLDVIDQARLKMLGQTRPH
Described as above. It counts as biochemical.
Text: as §1, §2, §3, §4, §5

For a further assay, the target named is T5, FLT3 (Homo sapiens, UniProt P36888).
T5 construct: made in house; host or cells: Sf9 insect cells, baculovirus
T5 sequence (P36888 27-993): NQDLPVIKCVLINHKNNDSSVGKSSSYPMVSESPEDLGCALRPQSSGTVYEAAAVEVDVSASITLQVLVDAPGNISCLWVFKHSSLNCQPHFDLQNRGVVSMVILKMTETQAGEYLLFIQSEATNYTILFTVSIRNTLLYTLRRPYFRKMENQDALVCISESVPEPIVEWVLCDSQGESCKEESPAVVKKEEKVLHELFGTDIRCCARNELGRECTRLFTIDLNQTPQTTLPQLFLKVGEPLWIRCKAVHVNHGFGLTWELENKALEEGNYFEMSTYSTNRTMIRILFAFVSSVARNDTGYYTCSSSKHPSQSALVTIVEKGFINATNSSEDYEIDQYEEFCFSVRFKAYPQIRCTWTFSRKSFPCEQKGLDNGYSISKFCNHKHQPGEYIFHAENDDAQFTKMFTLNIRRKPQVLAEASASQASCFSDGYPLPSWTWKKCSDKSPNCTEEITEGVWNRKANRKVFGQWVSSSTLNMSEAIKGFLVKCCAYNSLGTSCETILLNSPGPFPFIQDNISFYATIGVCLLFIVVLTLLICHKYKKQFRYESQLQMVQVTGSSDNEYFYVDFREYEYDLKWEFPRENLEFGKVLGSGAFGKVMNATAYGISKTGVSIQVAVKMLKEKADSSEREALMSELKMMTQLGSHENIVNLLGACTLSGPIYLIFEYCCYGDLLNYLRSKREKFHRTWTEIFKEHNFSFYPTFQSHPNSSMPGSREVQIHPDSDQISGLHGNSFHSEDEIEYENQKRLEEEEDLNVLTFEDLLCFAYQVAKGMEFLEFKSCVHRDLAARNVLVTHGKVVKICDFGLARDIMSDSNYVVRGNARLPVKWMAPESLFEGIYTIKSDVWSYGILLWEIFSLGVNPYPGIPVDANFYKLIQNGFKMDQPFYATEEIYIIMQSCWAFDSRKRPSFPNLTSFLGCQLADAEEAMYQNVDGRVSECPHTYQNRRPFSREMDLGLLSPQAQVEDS
Described as above. It counts as biochemical.
Text: as §1, §2, §3, §4, §5

The target in a further assay is T6, IGF1-R (Homo sapiens, UniProt P08069).
T6 construct: made in house; host or cells: Sf9 insect cells, baculovirus
T6 sequence (P08069 31-1367): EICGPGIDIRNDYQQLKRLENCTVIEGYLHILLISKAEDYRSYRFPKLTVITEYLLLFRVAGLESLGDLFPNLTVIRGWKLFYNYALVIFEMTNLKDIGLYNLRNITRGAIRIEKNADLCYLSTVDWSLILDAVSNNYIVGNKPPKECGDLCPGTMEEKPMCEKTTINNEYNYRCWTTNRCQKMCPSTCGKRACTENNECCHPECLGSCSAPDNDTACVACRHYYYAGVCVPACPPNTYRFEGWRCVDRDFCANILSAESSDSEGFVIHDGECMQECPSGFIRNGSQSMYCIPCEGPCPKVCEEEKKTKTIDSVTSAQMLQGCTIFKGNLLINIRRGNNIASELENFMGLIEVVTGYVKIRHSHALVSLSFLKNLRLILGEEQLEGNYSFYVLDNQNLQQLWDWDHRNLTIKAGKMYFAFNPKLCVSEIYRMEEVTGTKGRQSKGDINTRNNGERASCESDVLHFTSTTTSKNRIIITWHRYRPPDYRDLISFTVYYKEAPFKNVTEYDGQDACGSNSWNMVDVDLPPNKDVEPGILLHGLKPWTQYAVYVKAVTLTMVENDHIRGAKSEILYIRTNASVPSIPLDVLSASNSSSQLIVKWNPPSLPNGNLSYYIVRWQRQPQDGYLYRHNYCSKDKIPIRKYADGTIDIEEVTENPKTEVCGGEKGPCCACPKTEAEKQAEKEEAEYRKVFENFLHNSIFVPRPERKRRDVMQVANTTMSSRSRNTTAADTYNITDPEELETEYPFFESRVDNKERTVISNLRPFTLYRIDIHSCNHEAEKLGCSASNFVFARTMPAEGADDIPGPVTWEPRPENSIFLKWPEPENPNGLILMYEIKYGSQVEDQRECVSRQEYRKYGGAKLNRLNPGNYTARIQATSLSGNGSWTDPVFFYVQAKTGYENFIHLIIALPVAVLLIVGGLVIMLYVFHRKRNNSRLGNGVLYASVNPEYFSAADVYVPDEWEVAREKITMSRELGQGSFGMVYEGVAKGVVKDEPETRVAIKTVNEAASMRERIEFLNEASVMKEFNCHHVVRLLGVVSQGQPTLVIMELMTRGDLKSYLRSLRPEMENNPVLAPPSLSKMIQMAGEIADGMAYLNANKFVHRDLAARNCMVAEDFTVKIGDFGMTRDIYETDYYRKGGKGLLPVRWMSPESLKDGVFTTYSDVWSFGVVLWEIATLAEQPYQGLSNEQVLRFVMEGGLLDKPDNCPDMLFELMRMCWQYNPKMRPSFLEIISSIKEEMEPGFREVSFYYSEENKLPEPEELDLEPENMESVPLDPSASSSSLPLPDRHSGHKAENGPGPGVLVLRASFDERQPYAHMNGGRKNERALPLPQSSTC
The description is as above. It counts as biochemical.
Text: as §1, §2, §3, §4, §5

The target of another assay is T7, TIE2 (Homo sapiens, UniProt Q02763).
T7 construct: made in house; host or cells: Sf9 insect cells, baculovirus
T7 sequence (Q02763 23-1124): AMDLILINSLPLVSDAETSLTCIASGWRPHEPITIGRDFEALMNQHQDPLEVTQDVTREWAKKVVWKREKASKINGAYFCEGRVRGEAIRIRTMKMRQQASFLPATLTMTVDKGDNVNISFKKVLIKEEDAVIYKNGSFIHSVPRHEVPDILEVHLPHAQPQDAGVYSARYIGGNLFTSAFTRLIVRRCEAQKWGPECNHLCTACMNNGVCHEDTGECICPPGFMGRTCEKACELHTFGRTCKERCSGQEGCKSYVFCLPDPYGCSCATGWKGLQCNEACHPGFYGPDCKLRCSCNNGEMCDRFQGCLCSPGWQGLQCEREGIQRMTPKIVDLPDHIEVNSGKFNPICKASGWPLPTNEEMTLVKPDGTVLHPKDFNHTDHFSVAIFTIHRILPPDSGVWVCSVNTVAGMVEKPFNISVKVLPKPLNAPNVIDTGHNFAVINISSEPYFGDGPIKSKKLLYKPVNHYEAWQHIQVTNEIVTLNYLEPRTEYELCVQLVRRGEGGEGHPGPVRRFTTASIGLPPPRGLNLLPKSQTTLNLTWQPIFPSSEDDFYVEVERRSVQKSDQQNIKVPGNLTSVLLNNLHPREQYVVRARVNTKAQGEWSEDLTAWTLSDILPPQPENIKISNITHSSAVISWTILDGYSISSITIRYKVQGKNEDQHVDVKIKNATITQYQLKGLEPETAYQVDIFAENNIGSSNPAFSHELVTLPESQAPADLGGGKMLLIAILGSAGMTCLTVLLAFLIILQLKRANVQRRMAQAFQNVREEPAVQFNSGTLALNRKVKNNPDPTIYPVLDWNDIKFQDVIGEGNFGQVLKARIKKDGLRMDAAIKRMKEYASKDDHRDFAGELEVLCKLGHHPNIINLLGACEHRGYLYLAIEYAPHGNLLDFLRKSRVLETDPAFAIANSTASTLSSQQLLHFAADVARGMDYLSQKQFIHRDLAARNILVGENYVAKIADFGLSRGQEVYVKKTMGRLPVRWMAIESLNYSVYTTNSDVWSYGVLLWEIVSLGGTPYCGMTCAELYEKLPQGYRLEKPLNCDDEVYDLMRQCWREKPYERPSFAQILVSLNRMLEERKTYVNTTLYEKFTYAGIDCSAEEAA
Described as above. Type of assay: biochemical.
Text: as §1, §2, §3, §4, §5

The test system of the next assay is DAN-G. The experiment in a line: Proliferation of tumor cell lines (Bracht et al.). It counts as cell-based. The note with it: read-out: IC50 (μM) Mean, inhibition of cell proliferation.
In the next assay the test system is LCLC. In words: Proliferation of tumor cell lines (Bracht et al.). Type of assay: cell-based. Conditions: read-out: IC50 (μM) Mean, inhibition of cell proliferation.
Another assay concerns RT-4. In words: Proliferation of tumor cell lines (Bracht et al.). Conditions: Homo sapiens, read-out: IC50 (μM) Mean, inhibition of cell proliferation. Type of assay: cell-based.
For the next assay, the target named is T8, EGF-R (Homo sapiens, UniProt P00533).
T8 construct: made in house; host or cells: Sf9 insect cells, baculovirus
The experiment in a line: Radiometric protein kinase assay (33PanQinase Activity Assay). Conditions: 1 μM ATP. It counts as biochemical.

In a further assay the target is T9, PDGFR-beta (Homo sapiens, UniProt P09619).
T9 construct: made in house; host or cells: Sf9 insect cells, baculovirus
The description is as above. It counts as biochemical. The note with it: 1 μM ATP.

Where [1] appears, read: 1 μM ATP, read-out: IC50 values [μM] Aurora-B.
[2] abbreviates: 1 μM ATP, read-out: IC50 values [μM] B-RAF-VE.
Where [3] appears, read: 1 μM ATP, read-out: IC50 values [μM] CDK2/CycA.
Where [4] appears, read: 1 μM ATP, read-out: IC50 values [μM] FAK.
[5] abbreviates: 1 μM ATP, read-out: IC50 values [μM] FLT3.
Where [6] appears, read: 1 μM ATP, read-out: IC50 values [μM] IGF1-R.
Setting [7] is: 1 μM ATP, read-out: IC50 values [μM] TIE2.

SMILES strings stand for the structures. Read-outs that look alike come from different tables or passages of the source.

T1 sequence (Q96GD4 whole entry): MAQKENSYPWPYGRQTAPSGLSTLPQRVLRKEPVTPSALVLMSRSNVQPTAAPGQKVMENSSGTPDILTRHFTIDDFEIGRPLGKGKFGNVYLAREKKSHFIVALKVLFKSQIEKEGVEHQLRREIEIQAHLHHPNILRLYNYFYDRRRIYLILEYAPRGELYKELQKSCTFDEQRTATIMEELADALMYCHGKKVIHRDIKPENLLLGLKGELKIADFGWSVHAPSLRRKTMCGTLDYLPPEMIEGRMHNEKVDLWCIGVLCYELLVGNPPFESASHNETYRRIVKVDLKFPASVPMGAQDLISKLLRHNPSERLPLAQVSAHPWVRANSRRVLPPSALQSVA

As for `CC(C)n1c2c(c3c1-c1ccccc1C3=O)C(=O)CCC2` [Compound 4b, 5-Isopropyl-5,6,7,8-tetrahydroindeno[1,2-b]indole-9,10-dione], the activity at 20 µM in the assay with 5637 is 99%; in the assay on SISO, 100%; with KYSE-70 it was 74.9%. For the same molecule, the IC50 on Aurora-B, on B-RAF-VE, on CDK2/CycA, on FAK, against FLT3 and on IGF1-R was above 10 µM throughout. This molecule also registered an IC50 against TIE2 above 10 µM.
Regarding `O=c1ccc(=O)c2c1c1c(=O)c3ccccc3c1n2Cc1ccccc1` [Compound 6c, 5-Benzyl 5,6,9,10-tetrahydroindeno[1,2-b]indole-6,9,10-trione], the activity at 20 µM in the assay with 5637 was 0.44%; in the assay with SISO, 5.3%; in the assay on KYSE-70, 12.1%. Further, the IC50 with 5637 (5637, read-out: IC50 (μM) Mean, inhibition of cell proliferation) was 2.75 µM; in the assay on SISO (read-out: IC50 (μM) Mean, inhibition of cell proliferation) it was 2.82 µM; with KYSE-70 (KYSE-70, read-out: IC50 (μM) Mean, inhibition of cell proliferation), 2.83 µM; in the assay with DAN-G it was above 20 µM; in the assay on LCLC, 4.14 µM; with RT-4, above 20 µM. For the same molecule, the IC50 was 2.5 µM against EGF-R; above 10 µM at Aurora-B (setting [1]); above 10 µM at B-RAF-VE (setting [2]); above 10 µM on CDK2/CycA (setting [3]); above 10 µM on FAK (setting [4]); 9.2 µM at FLT3 (setting [5]). For the same molecule, the values for the IC50 at IGF1-R (setting [6]), on TIE2 (setting [7]) and at PDGFR-beta were 2.5 µM, 4.7 µM and above 10 µM, respectively.
Consider `CC(C)n1c2c(=O)ccc(=O)c2c2c(=O)c3ccccc3c21` [Compound 6b, 5-Isopropyl-5H-indeno[1,2-b]indole-6,9,10-trione], for which the activity at 20 µM in the assay with 5637 is -1.73%; in the assay with SISO it was 0.28%; in the assay on KYSE-70 it was 1.26%. The IC50 was above 10 µM on EGF-R; 5.4 µM at Aurora-B (setting [1]); above 10 µM at B-RAF-VE (setting [2]); above 10 µM on CDK2/CycA (setting [3]); above 10 µM at FAK (setting [4]); 0.051 µM on FLT3 (setting [5]). Also, the values for the IC50 on IGF1-R (setting [6]), on TIE2 (setting [7]) and against PDGFR-beta were 2.9 µM, 3.2 µM and above 10 µM, respectively.

Values taken from patent US8133913B2, “Substituted indeno [1,2-b]indole derivatives as novel inhibitors of protein kinase CK2 and their use as tumor therapeutic agents, cytostatics and diagnostic aids” (Heinrich-Heine Universitat Dusseldof, priority 2006, dated 2012).
